Legend:
Beta-glucuronidase = biological target: T1, Beta-glucuronidase (Bos taurus, UniProt A3KMY8); test: Inhibition of bovine liver beta-glucuronidase assessed as p-nitrophenol formation preincubated for 30 mins followed by p-nitrophenyl-beta-D-glucuronide addition by spectrophotometric method
T1 sequence (A3KMY8 whole entry): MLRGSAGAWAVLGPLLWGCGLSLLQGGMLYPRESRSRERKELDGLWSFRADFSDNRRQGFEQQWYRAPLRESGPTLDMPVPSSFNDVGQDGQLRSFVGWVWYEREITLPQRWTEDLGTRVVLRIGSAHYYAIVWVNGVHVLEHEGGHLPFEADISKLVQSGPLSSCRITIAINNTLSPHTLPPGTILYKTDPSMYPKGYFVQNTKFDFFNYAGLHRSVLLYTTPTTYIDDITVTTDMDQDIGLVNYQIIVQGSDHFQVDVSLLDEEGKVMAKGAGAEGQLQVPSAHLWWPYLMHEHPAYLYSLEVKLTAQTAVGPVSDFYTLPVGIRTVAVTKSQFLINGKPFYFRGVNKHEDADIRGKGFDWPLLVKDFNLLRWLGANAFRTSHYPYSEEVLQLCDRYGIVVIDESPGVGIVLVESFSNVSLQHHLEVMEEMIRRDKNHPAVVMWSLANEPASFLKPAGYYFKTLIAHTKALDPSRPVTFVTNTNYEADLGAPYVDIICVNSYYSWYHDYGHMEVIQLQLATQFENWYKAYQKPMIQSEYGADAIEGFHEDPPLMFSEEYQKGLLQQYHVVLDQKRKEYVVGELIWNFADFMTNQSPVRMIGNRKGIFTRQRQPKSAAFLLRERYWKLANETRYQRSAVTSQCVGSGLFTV

[1] = biological target: T2, Beta-glucuronidase (Bos taurus) (UniProt A3KMY8); test: Potency index, ratio of D-saccharic acid 1,4-lactone IC50 to compound IC50 for bovine liver beta-glucuronidase
T2 sequence (whole entry): T1 sequence (A3KMY8 whole entry)

## COC(=O)C1=C(C)NC(=O)NC1c1ccc(Cl)cc1 (stereo not given)
Beta-glucuronidase; read-out: IC50
  IC50: 34.2 µM

## COC(=O)C1=C(C)NC(=O)NC1c1cccs1 (stereo not given)
Beta-glucuronidase; read-out: IC50
  IC50: 18.2 µM

## COC(=O)C1=C(C)NC(=O)NC1c1cc(Br)c(OC)c(OC)c1 (stereo not given)
Beta-glucuronidase
  IC50: Not Active

## COC(=O)C1=C(C)NC(=O)NC1c1ccc(OC)c(OC)c1 (stereo not given)
Beta-glucuronidase
  IC50: Not Active

## COC(=O)C1=C(C)NC(=O)NC1c1ccc(C(F)(F)F)cc1 (stereo not given)
Beta-glucuronidase; read-out: IC50
  IC50: 9.38 µM
[1]
  Ratio IC50: 5

## COC(=O)C1=C(C)NC(=O)NC1c1cccc2ccccc12 (stereo not given)
Beta-glucuronidase; read-out: IC50
  IC50: 48.2 µM

## COC(=O)C1=C(C)NC(=O)NC1c1ccc(O)c(Cl)c1 (stereo not given)
Beta-glucuronidase; read-out: IC50
  IC50: 27.2 µM

## COC(=O)C1=C(C)NC(=O)NC1c1ccccc1 (stereo not given)
Beta-glucuronidase
  IC50: Not Active

## COC(=O)C1=C(C)NC(=O)NC1c1ccccc1OCc1ccccc1 (stereo not given)
Beta-glucuronidase
  IC50: Not Active

## COC(=O)C1=C(C)NC(=O)NC1c1ccccc1F (stereo not given)
Beta-glucuronidase; read-out: IC50
  IC50: 14.1 µM

## COC(=O)C1=C(C)NC(=O)NC1c1ccc(Br)cc1 (stereo not given)
Beta-glucuronidase; read-out: IC50
  IC50: 64.1 µM

## COC(=O)C1=C(C)NC(=O)NC1c1ccccc1OC (stereo not given)
Beta-glucuronidase; read-out: IC50
  IC50: 59.2 µM

## COC(=O)C1=C(C)NC(=O)NC1c1ccc(C(C)C)cc1 (stereo not given)
Beta-glucuronidase
  IC50: Not Active

## COC(=O)C1=C(C)NC(=O)NC1c1ccc(N(C)C)cc1 (stereo not given)
Beta-glucuronidase; read-out: IC50
  IC50: 49.2 µM

## COC(=O)C1=C(C)NC(=O)NC1c1ccc(OC(C)=O)c(OC)c1 (stereo not given)
Beta-glucuronidase; read-out: IC50
  IC50: 28.2 µM

## COC(=O)C1=C(C)NC(=O)NC1c1cccc(OCc2ccccc2)c1 (stereo not given)
Beta-glucuronidase
  IC50: Not Active

## CCCCC1NC(=O)NC(C)=C1C(=O)OC (stereo not given)
Beta-glucuronidase; read-out: IC50
  IC50: 78.2 µM

## COC(=O)C1=C(C)NC(=O)NC1c1ccc2ccccc2c1 (stereo not given)
Beta-glucuronidase
  IC50: Not Active

## COC(=O)C1=C(C)NC(=O)NC1c1cccc(O)c1 (stereo not given)
Beta-glucuronidase; read-out: IC50
  IC50: 15.2 µM
[1]
  Ratio IC50: > 3

## COC(=O)C1=C(C)NC(=O)NC1c1ccc(C)o1 (stereo not given)
Beta-glucuronidase; read-out: IC50
  IC50: 44.2 µM

## COC(=O)C1=C(C)NC(=O)NC1c1cccc(OC)c1OC (stereo not given)
Beta-glucuronidase; read-out: IC50
  IC50: 54.2 µM

## CCC1NC(=O)NC(C)=C1C(=O)OC (stereo not given)
Beta-glucuronidase; read-out: IC50
  IC50: 52.2 µM

## COC(=O)C1=C(C)NC(=O)NC1c1ccsc1 (stereo not given)
Beta-glucuronidase; read-out: IC50
  IC50: 47.2 µM

## COC(=O)C1=C(C)NC(=O)NC1c1ccco1 (stereo not given)
Beta-glucuronidase; read-out: IC50
  IC50: 40.2 µM

## COC(=O)C1=C(C)NC(=O)NC1c1ccc(OC)cc1 (stereo not given)
Beta-glucuronidase; read-out: IC50
  IC50: 59.2 µM

## COC(=O)C1=C(C)NC(=O)NC1c1ccc(C)s1 (stereo not given)
Beta-glucuronidase; read-out: IC50
  IC50: 33.1 µM

## COC(=O)C1=C(C)NC(=O)NC1c1ccc(O)cc1 (stereo not given)
Beta-glucuronidase; read-out: IC50
  IC50: 17.6 µM

## COC(=O)C1=C(C)NC(=O)NC1c1ccc(OC)c(OCc2ccccc2)c1 (stereo not given)
Beta-glucuronidase
  IC50: Not Active

## COC(=O)C1=C(C)NC(=O)NC1c1cc(OC)c(O)c(OC)c1 (stereo not given)
Beta-glucuronidase; read-out: IC50
  IC50: 34.2 µM

## COC(=O)C1=C(C)NC(=O)NC1c1ccc([N+](=O)[O-])cc1 (stereo not given)
Beta-glucuronidase; read-out: IC50
  IC50: 49.1 µM

## COC(=O)C1=C(C)NC(=O)NC1c1cc(OC)ccc1OC (stereo not given)
Beta-glucuronidase; read-out: IC50
  IC50: 61 µM

## COC(=O)C1=C(C)NC(=O)NC1c1ccccc1Cl (stereo not given)
Beta-glucuronidase; read-out: IC50
  IC50: 44.2 µM

## COC(=O)C1=C(C)NC(=O)NC1CC(C)C (stereo not given)
Beta-glucuronidase; read-out: IC50
  IC50: 55.2 µM

## COC(=O)C1=C(C)NC(=O)NC1c1ccc(F)c(OC)c1 (stereo not given)
Beta-glucuronidase; read-out: IC50
  IC50: 22.1 µM

## COC(=O)C1=C(C)NC(=O)NC1c1c(Cl)cccc1Cl (stereo not given)
Beta-glucuronidase; read-out: IC50
  IC50: 24.2 µM
[1]
  Ratio IC50: 2

## COC(=O)C1=C(C)NC(=O)NC1c1ccc(OC)cc1F (stereo not given)
Beta-glucuronidase; read-out: IC50
  IC50: 18.2 µM

## CCOc1ccc(C2NC(=O)NC(C)=C2C(=O)OC)cc1 (stereo not given)
Beta-glucuronidase; read-out: IC50
  IC50: 72.2 µM

Reference: ChEMBL document CHEMBL3817800, “Dihydropyrimidones: As novel class of β-glucuronidase inhibitors” (Bioorg Med Chem, 2016)
